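Grown in 96-well plates, cells were treated for 48 hours with each compound at five concentrations. Insufficient inhibition: endpoint recorded as highest concentration tested. Here, GI50 denotes the concentration required for 50% inhibition of growth. TGI: total growth inhibition.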
Columns and labels:
Test in all cases: growth of human tumour cells (NCI), 48 h
A498 renal = tested on: A498 renal
LOX IMVI melanoma = tested on: LOX IMVI melanoma
CAKI-1 renal = tested on: CAKI-1 renal
T-47D breast = tested on: T-47D breast
UO-31 renal = tested on: UO-31 renal
HOP-62 NSCLC = tested on: HOP-62 NSCLC
NCI-H460 lung = tested on: NCI-H460 lung
CCRF-CEM leukemia = tested on: CCRF-CEM leukemia
IGROV1 ovarian = tested on: IGROV1 ovarian
OVCAR-3 ovarian = tested on: OVCAR-3 ovarian

| SMILES | GI50 (A498 renal) [µM] | TGI (A498 renal) [µM] | GI50 (LOX IMVI melanoma) [µM] | TGI (LOX IMVI melanoma) [µM] | GI50 (CAKI-1 renal) [µM] | TGI (CAKI-1 renal) [µM] | GI50 (T-47D breast) [µM] | TGI (T-47D breast) [µM] | GI50 (UO-31 renal) [µM] | TGI (UO-31 renal) [µM] | GI50 (HOP-62 NSCLC) [µM] | TGI (HOP-62 NSCLC) [µM] | GI50 (NCI-H460 lung) [µM] | TGI (NCI-H460 lung) [µM] | GI50 (CCRF-CEM leukemia) [µM] | TGI (CCRF-CEM leukemia) [µM] | GI50 (IGROV1 ovarian) [µM] | TGI (IGROV1 ovarian) [µM] | GI50 (OVCAR-3 ovarian) [µM] | TGI (OVCAR-3 ovarian) [µM] |
| --- | --- | --- | --- | --- | --- | --- | --- | --- | --- | --- | --- | --- | --- | --- | --- | --- | --- | --- | --- | --- |
| CCN1C[C@@H](C)n2c(c(O)c3c(=O)n(Cc4ccc(F)c(Cl)c4)nc(C(=O)NC)c32)C1=O | 1.43 | 4.55 | 3.13 | 18 | 3.03 | 16.6 | 3.57 | > 100 | 2.43 | > 100 | 3.16 | 24.7 | 3.15 | 10.7 | 3.57 | > 100 | 3.74 | > 100 |  |  |
| CCCCNC(=O)CC1=C(C)/C(=C/c2[nH]c(-c3ccc[nH]3)cc2OC)N=C1C | 2.54 | 7.43 | 1.56 | 3.17 | 2.56 | 9.3 | 2.41 | 7.39 | 1.9 | 4 | 2.5 | 9.76 | 2.71 | 11.7 | 1.71 | 8.88 | 3.23 | 10.3 | 2.58 | 9.77 |
| O=C(CC(O)(C(F)(F)F)C(F)(F)F)c1cccs1 |  |  |  | > 10 |  | > 10 |  | > 10 |  |  |  | > 10 |  |  |  | > 10 |  | > 10 |  | > 10 |
| N#Cc1ncc(-c2ccc(C(F)(F)F)cc2)c(NC2CCCCCC2)n1 | 21.4 | > 100 |  |  | 18.3 | > 100 | 6 | > 100 | 12 | > 100 | > 100 | > 100 | 11.1 | > 100 | 9.97 | > 100 | 38.8 | > 100 | 14.9 | > 100 |
| CN1C(=O)[C@@H](CC2CCCC2)N(C2CCCC2)c2nc(Nc3cc(Cl)c(O)c(Cl)c3)ncc21 | 35.4 | > 100 | 19.5 | 49.3 | 23.1 | > 100 | 12.9 | 74.9 |  |  | 27.9 | > 100 | 23.5 | 90.3 | 18.6 | 84.2 | 32.9 | > 100 | 21.8 | 73.9 |
| COc1ccc(-c2cc(-c3ccc(Cl)cc3)nc(SCCCC(=O)NO)n2)cc1OC | 1.22 | 2.8 | 0.345 | 1.44 | 0.308 | 1.54 | 1.88 | 18.1 | 0.277 | 1.09 | 1.01 | 6.87 | 0.466 | 3.4 | 0.488 | 33.4 | 1.04 | 2.69 | 0.423 | 2.52 |
| Cc1c(Br)c(Br)c2c3c1nc(N1CCNCC1)n3CCC2 | 1.44 | 2.99 | 1.49 | 2.94 | 1.45 | 3.05 | 2.35 | 6.36 | 1.54 | 2.91 | 1.87 | 4.87 | 1.7 | 3.22 |  |  | 1.41 | 3.12 | 1.56 | 3.01 |
| CN(C)Cc1ccc(O)c(CN(C)C)n1 |  | > 100 |  | > 100 |  | > 100 |  | > 100 |  | > 100 |  | > 100 |  | > 100 |  |  |  | > 100 |  | > 100 |
| CC(=O)CCC[C@@H](C)[C@@H]1O[C@H]([C@@]2(C)CCC(=O)O2)CC2[C@H]1OC(=O)C21CC1 (stereo not given in full) |  |  | 77.1 | > 100 | 61.2 | > 100 | > 100 | > 100 | > 100 | > 100 |  |  | 39.7 | > 100 | > 100 | > 100 | 55 | > 100 | > 100 | > 100 |
| N#CC(Cl)CS(=O)(=O)c1ccccc1 (stereo not given) |  | 30.9 |  | 22 |  | 10.2 |  | 6.06 |  | 33.5 |  | > 59.1 |  | 38.8 |  |  |  | 38 |  | 7.17 |
| CCN(CC)CCOc1ccc2c(-c3ccccc3)c(-c3ccc(OC)cc3)c(=O)oc2c1 | 3.13 | 16.4 | 1.93 | 4.27 | 3.07 | 10.3 | 3.57 | 15.9 | 1.65 | 5.55 | 4.47 | 16.8 | 2.5 | 6.06 | 3.34 | 15.4 |  |  | 4.32 | 16.5 |
| c1ccc(C2=Nc3ccccc3N3CNN=C23)cc1 |  |  | > 100 | > 100 | > 100 | > 100 | 74.8 | > 100 | > 100 | > 100 | > 100 | > 100 | > 100 | > 100 | > 100 | > 100 | > 100 | > 100 | 84.4 | > 100 |
| Cc1cc2c(C(C)C)c(O)c(O)c(/C=N/O)c2c(O)c1-c1c(C)cc2c(C(C)C)c(O)c(O)c(/C=N/O)c2c1O | 2.54 | 10.4 | 1.53 | 3.47 |  |  | 2 | 8.42 | 2.24 | 12.6 | 1.95 | 11.4 | 2.19 | 6.72 | 3.6 | 14.7 | 3.54 | 16 | 1.69 | 10.1 |
| COC(=O)COc1ccccc1/C=C1/N=C(c2ccccc2)N(c2c(C)n(C)n(-c3ccccc3)c2=O)C1=O | > 100 | > 100 | 76.5 | > 100 | > 100 | > 100 | 30.5 | > 100 | > 100 | > 100 | > 100 | > 100 | > 100 | > 100 |  |  | 46.1 | > 100 | 20.9 | 50.9 |

From PubChem BioAssay (NCI)
